Data taken from patent US7880007B2, “Bicyclic substituted phenyl piperidine modulators of muscarinic receptors” (Vertex Pharmaceuticals Incorporated, priority 2004, dated 2011).

Tests used:
Type in all cases: cell-based
M1 muscarinic receptor = biological target: T1, M1 muscarinic receptor (Homo sapiens, UniProt P11229); test: Functional mobilization of intracellular calcium (FLIPR), M1-CHO cells; settings: for M1 Activity: M1-CHO cells, calcium mobilization (FLIPR)
T1 construct: expressed in transfected cells; host or cells: CHO (M1-CHO)
T1 sequence (P11229 1-460): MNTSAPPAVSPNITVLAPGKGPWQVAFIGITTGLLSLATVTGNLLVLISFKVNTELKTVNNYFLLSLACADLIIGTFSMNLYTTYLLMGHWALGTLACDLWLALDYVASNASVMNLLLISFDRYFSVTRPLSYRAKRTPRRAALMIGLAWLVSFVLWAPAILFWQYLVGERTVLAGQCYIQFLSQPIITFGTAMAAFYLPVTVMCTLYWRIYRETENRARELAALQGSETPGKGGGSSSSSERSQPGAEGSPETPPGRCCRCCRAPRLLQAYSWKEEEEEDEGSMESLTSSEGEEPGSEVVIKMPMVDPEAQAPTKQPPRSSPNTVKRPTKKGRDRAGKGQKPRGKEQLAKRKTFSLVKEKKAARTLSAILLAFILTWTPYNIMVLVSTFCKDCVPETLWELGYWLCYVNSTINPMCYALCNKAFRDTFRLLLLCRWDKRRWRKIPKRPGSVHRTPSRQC
In short: (§1)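 Calcium mobilisation read by FLIPR over 60 s (ex 488/em 540 nm) in recombinant muscarinic CHO lines loaded with calcium dye plus 1 mM probenecid. Compounds tested as agonists alone, or as inhibitors against EC80 carbachol after 15 min pre-incubation or co-addition; 0.5% DMSO; efficacy scaled to carbachol maximal response.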

M4 muscarinic receptor = biological target: T2, M4 muscarinic receptor (Homo sapiens, UniProt P08173); test: Functional mobilization of intracellular calcium (FLIPR), M4-CHO cells; settings: for M4 Activity: M4-CHO cells, calcium mobilization (FLIPR)
T2 construct: expressed in transfected cells; host or cells: CHO (M4-CHO)
T2 sequence (P08173 1-479): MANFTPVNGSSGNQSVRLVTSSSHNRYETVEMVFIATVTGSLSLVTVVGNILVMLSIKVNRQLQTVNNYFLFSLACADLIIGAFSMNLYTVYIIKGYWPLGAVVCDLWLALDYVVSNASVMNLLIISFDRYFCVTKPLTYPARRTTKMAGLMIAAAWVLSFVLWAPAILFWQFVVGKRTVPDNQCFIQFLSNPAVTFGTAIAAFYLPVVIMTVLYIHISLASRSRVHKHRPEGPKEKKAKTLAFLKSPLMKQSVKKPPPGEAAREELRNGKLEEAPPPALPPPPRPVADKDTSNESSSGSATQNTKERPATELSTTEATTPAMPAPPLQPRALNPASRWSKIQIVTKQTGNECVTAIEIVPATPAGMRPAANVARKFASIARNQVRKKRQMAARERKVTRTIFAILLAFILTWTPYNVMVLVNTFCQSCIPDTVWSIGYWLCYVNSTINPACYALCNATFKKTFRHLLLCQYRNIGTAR
In short: as §1

M2 muscarinic receptor = biological target: T3, M2 muscarinic receptor (Homo sapiens, UniProt P08172); test: Functional mobilization of intracellular calcium (FLIPR), M2-CHO cells; settings: for M2 Activity: M2-CHO cells, calcium mobilization (FLIPR)
T3 construct: expressed in transfected cells; host or cells: CHO (M2-CHO)
T3 sequence (P08172 1-466): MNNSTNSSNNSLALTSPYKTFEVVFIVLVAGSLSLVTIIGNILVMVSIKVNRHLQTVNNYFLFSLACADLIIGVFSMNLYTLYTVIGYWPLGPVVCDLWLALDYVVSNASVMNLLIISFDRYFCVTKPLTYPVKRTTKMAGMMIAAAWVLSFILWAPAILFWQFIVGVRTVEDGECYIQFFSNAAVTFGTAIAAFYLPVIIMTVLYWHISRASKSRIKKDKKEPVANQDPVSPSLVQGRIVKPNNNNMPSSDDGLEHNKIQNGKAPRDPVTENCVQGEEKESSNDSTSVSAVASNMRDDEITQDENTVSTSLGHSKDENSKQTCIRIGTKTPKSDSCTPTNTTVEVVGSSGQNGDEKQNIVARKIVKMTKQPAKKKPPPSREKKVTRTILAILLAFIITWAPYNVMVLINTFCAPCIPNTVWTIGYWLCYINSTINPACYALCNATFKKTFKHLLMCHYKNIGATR
In short: as §1

M3 muscarinic receptor = biological target: T4, M3 muscarinic receptor (Homo sapiens, UniProt P20309); test: Functional mobilization of intracellular calcium (FLIPR), M3-CHO cells; settings: for M3 Activity: M3-CHO cells, calcium mobilization (FLIPR)
T4 construct: expressed in transfected cells; host or cells: CHO (M3-CHO)
T4 sequence (P20309 whole entry): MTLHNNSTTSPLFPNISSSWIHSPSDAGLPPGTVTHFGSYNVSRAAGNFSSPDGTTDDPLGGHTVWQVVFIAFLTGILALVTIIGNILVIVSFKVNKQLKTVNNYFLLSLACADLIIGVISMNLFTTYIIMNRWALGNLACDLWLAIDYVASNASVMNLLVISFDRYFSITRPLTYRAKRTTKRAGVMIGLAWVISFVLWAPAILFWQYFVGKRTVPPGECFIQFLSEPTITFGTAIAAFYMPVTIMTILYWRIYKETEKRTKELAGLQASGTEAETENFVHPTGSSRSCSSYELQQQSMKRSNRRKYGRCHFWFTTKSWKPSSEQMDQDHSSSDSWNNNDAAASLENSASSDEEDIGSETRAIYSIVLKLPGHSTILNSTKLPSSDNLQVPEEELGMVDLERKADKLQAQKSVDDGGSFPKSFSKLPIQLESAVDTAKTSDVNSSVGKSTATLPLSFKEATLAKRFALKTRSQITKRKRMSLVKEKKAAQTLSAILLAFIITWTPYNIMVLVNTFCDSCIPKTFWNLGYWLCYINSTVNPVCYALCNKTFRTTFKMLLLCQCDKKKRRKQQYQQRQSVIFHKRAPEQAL
In short: as §1

[1] = 100% efficacy = maximum response obtained with the Carbachol control
[2] = 100% efficacy is the maximum response obtained with the Carbachol control

Emax (M1 muscarinic receptor; [1]) [%] | Emax (M4 muscarinic receptor; [1]) [%] | Emax (M2 muscarinic receptor; [1]) [%] | Emax (M3 muscarinic receptor; [1]) [%] | Compound | M1 Activity (M1 muscarinic receptor) | M4 Activity (M4 muscarinic receptor) | M2 Activity (M2 muscarinic receptor) | M3 Activity (M3 muscarinic receptor) | Emax (M1 muscarinic receptor; [2]) [%] | Emax (M4 muscarinic receptor; [2]) [%] | Emax (M2 muscarinic receptor; [2]) [%] | Emax (M3 muscarinic receptor; [2]) [%]
25 to 100 | 25 to 100 | < 25 | < 25 | COc1ccccc1C1CCN(C2CCC(C)C2)CC1 (centres unmarked) [Compound 265] | + (activity was measured to be greater than 5.0 μM) | +++ (activity was measured to be less than 1.0 μM) | + (activity was measured to be greater than 5.0 μM) | + (activity was measured to be greater than 5.0 μM) |  |  |  | 
25 to 100 | 25 to 100 | 25 to 100 | < 25 | COc1ccc(Cl)cc1C1CCN(C2CCCCC2)CC1 [Compound 9] | +++ (activity was measured to be less than 1.0 μM) | +++ (activity was measured to be less than 1.0 μM) | +++ (activity was measured to be less than 1.0 μM) | + (activity was measured to be greater than 5.0 μM) |  |  |  | 
25 to 100 | 25 to 100 | < 25 | < 25 | COc1ccccc1C1CCN(C2CCC(C)CC2)CC1 (centres unmarked) [Compound 158] | + (activity was measured to be greater than 5.0 μM) | +++ (activity was measured to be less than 1.0 μM) | + (activity was measured to be greater than 5.0 μM) | + (activity was measured to be greater than 5.0 μM) |  |  |  | 
25 to 100 | 25 to 100 | 25 to 100 | < 25 | CC(=O)COc1ccccc1C1CCN(C2CC3CC[C@H]2C3)CC1 (stereo in doubt) [Compound 53, 1-(2-(1-((1S,2R,4R)-bicyclo[2.2.1]heptan-2-yl)piperidin-4-yl)phenoxy)propan-2-one] |  |  |  |  |  |  |  | 
< 25 | 25 to 100 | < 25 | < 25 | COc1ccccc1C1CCN(C2CCN(C(C)=O)CC2)CC1 [Compound 266] | + (activity was measured to be greater than 5.0 μM) | ++ (activity was measured to be from 1.0 μM to 5.0 μM) | + (activity was measured to be greater than 5.0 μM) | + (activity was measured to be greater than 5.0 μM) |  |  |  | 
25 to 100 | 25 to 100 | < 25 | < 25 | COc1cc(F)ccc1C1CCN([C@H]2C[C@H]3CC[C@H]2C3)CC1 [Compound 4] | + (activity was measured to be greater than 5.0 μM) | +++ (activity was measured to be less than 1.0 μM) | + (activity was measured to be greater than 5.0 μM) | + (activity was measured to be greater than 5.0 μM) |  |  |  | 

The remaining lines, values behind:

Compound | Emax (M1 muscarinic receptor; [1]) [%] | Emax (M4 muscarinic receptor; [1]) [%] | Emax (M2 muscarinic receptor; [1]) [%] | Emax (M3 muscarinic receptor; [1]) [%] | M1 Activity (M1 muscarinic receptor) | M4 Activity (M4 muscarinic receptor) | M2 Activity (M2 muscarinic receptor) | M3 Activity (M3 muscarinic receptor) | Emax (M1 muscarinic receptor; [2]) [%] | Emax (M4 muscarinic receptor; [2]) [%] | Emax (M2 muscarinic receptor; [2]) [%] | Emax (M3 muscarinic receptor; [2]) [%]
COc1ccc(-c2ccccc2C)cc1C1CCN([C@@H]2C[C@H]3CC[C@H]2C3)CC1 [Compound 67] | < 25 | 25 to 100 | < 25 | < 25 | + (activity was measured to be greater than 5.0 μM) | + (activity was measured to be greater than 5.0 μM) | + (activity was measured to be greater than 5.0 μM) | + (activity was measured to be greater than 5.0 μM) |  |  |  | 
Clc1ccccc1-c1ccccc1C1CCN([C@H]2C[C@H]3CC[C@H]2C3)CC1 [Compound 88] | < 25 | 25 to 100 | < 25 | < 25 | + (activity was measured to be greater than 5.0 μM) | ++ (activity was measured to be from 1.0 μM to 5.0 μM) | + (activity was measured to be greater than 5.0 μM) | + (activity was measured to be greater than 5.0 μM) |  |  |  | 
COc1ccc(C)cc1C1CCN([C@H]2CC[C@H]3CC[C@H]2C3)CC1 [Compound 185] | 25 to 100 | 25 to 100 | 25 to 100 | < 25 | ++ (activity was measured to be from 1.0 μM to 5.0 μM) | +++ (activity was measured to be less than 1.0 μM) | + (activity was measured to be greater than 5.0 μM) | + (activity was measured to be greater than 5.0 μM) |  |  |  | 
CCOC(=O)N1C2CCC1CC(N1CCC(c3cc(Cl)ccc3OC)CC1)C2 (centres unmarked) [Compound 406] |  |  |  |  | +++ (activity was measured to be less than 1.0 μM) | +++ (activity was measured to be less than 1.0 μM) | +++ (activity was measured to be less than 1.0 μM) | + (activity was measured to be greater than 5.0 μM) | 25 to 100 | 25 to 100 | 25 to 100 | 25 to 100
COc1cc(F)c(F)c(C2CCN(C3CCOCC3)CC2)c1 [Compound 49] | 25 to 100 | 25 to 100 | < 25 | < 25 | + (activity was measured to be greater than 5.0 μM) | +++ (activity was measured to be less than 1.0 μM) | + (activity was measured to be greater than 5.0 μM) | + (activity was measured to be greater than 5.0 μM) |  |  |  | 
COc1ccc(Cl)cc1C1(F)CCN([C@@H]2C[C@H]3CC[C@H]2C3)CC1 [Compound 309] | 25 to 100 | 25 to 100 | 25 to 100 | < 25 | + (activity was measured to be greater than 5.0 μM) | ++ (activity was measured to be from 1.0 μM to 5.0 μM) | ++ (activity was measured to be from 1.0 μM to 5.0 μM) | + (activity was measured to be greater than 5.0 μM) |  |  |  | 
COc1ccc(F)cc1C1CCN(CC2CCOCC2)CC1 [Compound 163] | 25 to 100 | 25 to 100 | < 25 | < 25 | + (activity was measured to be greater than 5.0 μM) | +++ (activity was measured to be less than 1.0 μM) | + (activity was measured to be greater than 5.0 μM) | + (activity was measured to be greater than 5.0 μM) |  |  |  | 
CCOC(=O)N1CCC(CN2CCC(c3cc(-c4ccc(C(=O)NC)cc4)ccc3OC)CC2)CC1 [Compound 243] | 25 to 100 | 25 to 100 | < 25 | < 25 | +++ (activity was measured to be less than 1.0 μM) | +++ (activity was measured to be less than 1.0 μM) | + (activity was measured to be greater than 5.0 μM) | + (activity was measured to be greater than 5.0 μM) |  |  |  | 
Cc1ccc(C(=O)COc2ccccc2C2CCN([C@H]3C[C@H]4CC[C@H]3C4)CC2)cc1 [Compound 188] | 25 to 100 | 25 to 100 | 25 to 100 | < 25 | + (activity was measured to be greater than 5.0 μM) | ++ (activity was measured to be from 1.0 μM to 5.0 μM) | + (activity was measured to be greater than 5.0 μM) | + (activity was measured to be greater than 5.0 μM) |  |  |  | 
